Data published in patent US12077503B2, “Substituted cyclic amides and their use as herbicides” (FMC CORPORATION, priority 2015, dated 2024).

Tests used:
Format in all cases: in vivo
[1] = system: ducksalad (Heteranthera limosa); test: Test B flooded paddy test; conditions: Heteranthera limosa, 250 g ai/ha, Flood; 0 to 100 scale where 0 is no effect and 100 is complete control; read-out: Ducksalad plant response rating
Procedure, shortened: (§1)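 Greenhouse paddy pots with 2-leaf stage plants received compound by direct addition to floodwater 3 cm deep, kept at that level. Scored visually at 13–15 d versus controls (0 no effect; 100 complete control).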

[2] = system: sedge, umbrella (small-flower umbrella sedge, Cyperus difformis); test: Test B flooded paddy test; conditions: Cyperus difformis, 250 g ai/ha, Flood; 0 to 100 scale where 0 is no effect and 100 is complete control; read-out: Sedge, Umbrella plant response rating
Procedure, shortened: as §1

[3] = system: barnyardgrass (Echinochloa crus-galli); test: Test B flooded paddy test; conditions: Echinochloa crus-galli, 250 g ai/ha, Flood; 0 to 100 scale where 0 is no effect and 100 is complete control; read-out: Barnyardgrass plant response rating
Procedure, shortened: as §1

rice (Oryra sativa) = test: Test B flooded paddy test; conditions: Oryza sativa, 250 g ai/ha, Flood; 0 to 100 scale where 0 is no effect and 100 is complete control; read-out: Rice plant response rating
Procedure, shortened: as §1

[4] = system: Galium (catchweed bedstraw, Galium aparine); test: Test A postemergence; conditions: Galium, post-emergence, 240 h, Postemergence, read-out: Galium plant response rating (0 to 100 scale); for pest or weed control at 125 g/ha: 125 g ai/ha, visual rating about 10 d after treatment; for pest or weed control at 31 g/ha: 31 g ai/ha, 0 is no effect, 100 is complete control
Procedure, shortened: (§2)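 Greenhouse, ~10 d after spray; visual injury vs untreated controls, 0 = no effect, 100 = complete control. Preemergence: directed soil spray over planted seeds. Postemergence: plants 2–10 cm, 1–2 leaf stage. Loam/sand blend. Compound in non-phytotoxic solvent with surfactant.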

[5] = system: ragweed (common ragweed, Ambrosia elatior); test: Test A postemergence; conditions: Ambrosia artemisiifolia, post-emergence, 240 h, Postemergence, read-out: Ragweed plant response rating (0 to 100 scale); for pest or weed control at 125 g/ha: 125 g ai/ha, visual rating about 10 d after treatment; for pest or weed control at 31 g/ha: 31 g ai/ha, 0 is no effect, 100 is complete control
Procedure, shortened: as §2

corn (Zea mays) = test: Test A postemergence; conditions: Zea mays, post-emergence, 240 h, Postemergence, read-out: Corn plant response rating (0 to 100 scale); for plant injury at 125 g/ha: 125 g ai/ha, visual rating about 10 d after treatment; for plant injury at 31 g/ha: 31 g ai/ha, 0 is no effect, 100 is complete control
Procedure, shortened: as §2

[6] = system: barnyardgrass (Echinochloa crus-galli); test: Test A postemergence; conditions: Echinochloa crus-galli, post-emergence, 240 h, Postemergence; for pest or weed control at 125 g/ha: 125 g ai/ha, visual rating about 10 d after treatment, read-out: Barnyardgrass plant response rating (0 to 100 scale, 0 no effect, 100 complete control); for pest or weed control at 31 g/ha: 31 g ai/ha, 0 is no effect, 100 is complete control, read-out: Barnyardgrass plant response rating (0 to 100 scale)
Procedure, shortened: as §2

[7] = system: wheat (Triticum aestivum); test: Test A postemergence; conditions: Triticum aestivum, post-emergence, 240 h, Postemergence, read-out: Wheat plant response rating (0 to 100 scale); for plant injury at 125 g/ha: 125 g ai/ha, visual rating about 10 d after treatment; for plant injury at 31 g/ha: 31 g ai/ha, 0 is no effect, 100 is complete control
Procedure, shortened: as §2

Kochia (Kochia scoparia) [8] = test: Test A postemergence; conditions: Bassia scoparia, post-emergence, 240 h, Postemergence, read-out: Kochia plant response rating (0 to 100 scale); for pest or weed control at 125 g/ha: 125 g ai/ha, visual rating about 10 d after treatment; for pest or weed control at 31 g/ha: 31 g ai/ha, 0 is no effect, 100 is complete control
Procedure, shortened: as §2

[9] = system: ryegrass, Italian (Italian ryegrass, Lolium multiflorum); test: Test A postemergence; conditions: Lolium multiflorum, post-emergence, 240 h, Postemergence, read-out: Ryegrass, Italian plant response rating (0 to 100 scale); for pest or weed control at 125 g/ha: 125 g ai/ha, visual rating about 10 d after treatment; for pest or weed control at 31 g/ha: 31 g ai/ha, 0 is no effect, 100 is complete control
Procedure, shortened: as §2

[10] = system: blackgrass (Alopecurus myosuroides); test: Test A postemergence; conditions: Alopecurus myosuroides, post-emergence, 240 h, Postemergence, read-out: Blackgrass plant response rating (0 to 100 scale); for pest or weed control at 125 g/ha: 125 g ai/ha, visual rating about 10 d after treatment; for pest or weed control at 31 g/ha: 31 g ai/ha, 0 is no effect, 100 is complete control
Procedure, shortened: as §2

[11] = system: giant foxtail (Setaria faberii); test: Test A postemergence; conditions: Setaria faberi, post-emergence, 240 h, Postemergence, read-out: Foxtail, Giant plant response rating (0 to 100 scale); for pest or weed control at 125 g/ha: 125 g ai/ha, visual rating about 10 d after treatment; for pest or weed control at 31 g/ha: 31 g ai/ha, 0 is no effect, 100 is complete control
Procedure, shortened: as §2

[12] = system: pigweed (Amaranthus retroflexus); test: Test A postemergence; conditions: Amaranthus retroflexus, post-emergence, 240 h, Postemergence, read-out: Pigweed plant response rating (0 to 100 scale); for pest or weed control at 125 g/ha: 125 g ai/ha, visual rating about 10 d after treatment; for pest or weed control at 31 g/ha: 31 g ai/ha, 0 is no effect, 100 is complete control
Procedure, shortened: as §2

[13] = system: ragweed (common ragweed, Ambrosia elatior); test: Test A preemergence; conditions: Ambrosia artemisiifolia, pre-emergence, 240 h, 0 to 100 scale where 0 is no effect and 100 is complete control, read-out: Ragweed plant response rating; for pest or weed control at 31 g/ha: 31 g ai/ha, Preemergence; for pest or weed control at 125 g/ha: 125 g ai/ha, preemergence, visual injury rating, approximately 10 d
Procedure, shortened: as §2

[14] = system: barnyardgrass (Echinochloa crus-galli); test: Test A preemergence; conditions: Echinochloa crus-galli, pre-emergence, 240 h, 0 to 100 scale where 0 is no effect and 100 is complete control, read-out: Barnyardgrass plant response rating; for pest or weed control at 31 g/ha: 31 g ai/ha, Preemergence; for pest or weed control at 125 g/ha: 125 g ai/ha, preemergence, visual injury rating, approximately 10 d
Procedure, shortened: as §2

Kochia (Kochia scoparia) [15] = test: Test A preemergence; conditions: Bassia scoparia, pre-emergence, 240 h, 0 to 100 scale where 0 is no effect and 100 is complete control, read-out: Kochia plant response rating; for pest or weed control at 31 g/ha: 31 g ai/ha, Preemergence; for pest or weed control at 125 g/ha: 125 g ai/ha, preemergence, visual injury rating, approximately 10 d
Procedure, shortened: as §2

[16] = system: ryegrass, Italian (Italian ryegrass, Lolium multiflorum); test: Test A preemergence; conditions: Lolium multiflorum, pre-emergence, 240 h, 0 to 100 scale where 0 is no effect and 100 is complete control, read-out: Ryegrass, Italian plant response rating; for pest or weed control at 31 g/ha: 31 g ai/ha, Preemergence; for pest or weed control at 125 g/ha: 125 g ai/ha, preemergence, visual injury rating, approximately 10 d
Procedure, shortened: as §2

[17] = system: giant foxtail (Setaria faberii); test: Test A preemergence; conditions: Setaria faberi, pre-emergence, 240 h, 0 to 100 scale where 0 is no effect and 100 is complete control, read-out: Foxtail, Giant plant response rating; for pest or weed control at 31 g/ha: 31 g ai/ha, Preemergence; for pest or weed control at 125 g/ha: 125 g ai/ha, preemergence, visual injury rating, approximately 10 d
Procedure, shortened: as §2

[18] = system: pigweed (Amaranthus retroflexus); test: Test A preemergence; conditions: Amaranthus retroflexus, pre-emergence, 240 h, 0 to 100 scale where 0 is no effect and 100 is complete control, read-out: Pigweed plant response rating; for pest or weed control at 31 g/ha: 31 g ai/ha, Preemergence; for pest or weed control at 125 g/ha: 125 g ai/ha, preemergence, visual injury rating, approximately 10 d

Compound	pest or weed control at 250 g/ha [1]	pest or weed control at 250 g/ha [2]	pest or weed control at 250 g/ha [3]	pest or weed control at 250 g/ha (rice (Oryra sativa))	pest or weed control at 125 g/ha [4]	pest or weed control at 31 g/ha [4]	pest or weed control at 125 g/ha [5]	pest or weed control at 31 g/ha [5]	plant injury at 125 g/ha (corn (Zea mays))	plant injury at 31 g/ha (corn (Zea mays))	pest or weed control at 125 g/ha [6]	pest or weed control at 31 g/ha [6]	plant injury at 125 g/ha [7]	plant injury at 31 g/ha [7]	pest or weed control at 125 g/ha (Kochia (Kochia scoparia) [8])	pest or weed control at 31 g/ha (Kochia (Kochia scoparia) [8])	pest or weed control at 125 g/ha [9]	pest or weed control at 31 g/ha [9]	pest or weed control at 125 g/ha [10]	pest or weed control at 31 g/ha [10]	further results
CN1C[C@H](c2cccc(C(F)(F)F)c2)[C@@H](C(=O)Nc2ccccc2-n2cccn2)C1=O [Compound 1284]	0%	0%	0%	0%	0%	0%	0%	0%	0%	0%	0%	0%	0%	0%	0%	0%	0%	0%	0%	0%	pest or weed control at 125 g/ha [11]: 0%; pest or weed control at 31 g/ha [11]: 0%; pest or weed control at 125 g/ha [12]: 0%; pest or weed control at 31 g/ha [12]: 0%; pest or weed control at 31 g/ha [13]: 0%; pest or weed control at 125 g/ha [13]: 0%; pest or weed control at 31 g/ha [14]: 0%; pest or weed control at 125 g/ha [14]: 0%; pest or weed control at 31 g/ha (Kochia (Kochia scoparia) [15]): 0%; pest or weed control at 125 g/ha (Kochia (Kochia scoparia) [15]): 0%; pest or weed control at 31 g/ha [16]: 0%; pest or weed control at 125 g/ha [16]: 0%; pest or weed control at 31 g/ha [17]: 0%; pest or weed control at 125 g/ha [17]: 0%; pest or weed control at 31 g/ha [18]: 0%; pest or weed control at 125 g/ha [18]: 0%
Cc1c(F)cccc1NC(=O)[C@H]1C(=O)N(C)C[C@@H]1c1ccc2c(c1)C(F)(F)C(F)(F)O2 [Compound 1272]	80%	0%	50%	20%	60%	50%	0%	0%	50%	0%	70%	40%	50%	20%	20%	0%	30%	20%	40%	20%	pest or weed control at 125 g/ha [11]: 80%; pest or weed control at 31 g/ha [11]: 50%; pest or weed control at 125 g/ha [12]: 0%; pest or weed control at 31 g/ha [12]: 0%; pest or weed control at 31 g/ha [13]: 0%; pest or weed control at 125 g/ha [13]: 0%; pest or weed control at 31 g/ha [14]: 90%; pest or weed control at 125 g/ha [14]: 90%; pest or weed control at 31 g/ha (Kochia (Kochia scoparia) [15]): 0%; pest or weed control at 125 g/ha (Kochia (Kochia scoparia) [15]): 20%; pest or weed control at 31 g/ha [16]: 20%; pest or weed control at 125 g/ha [16]: 60%; pest or weed control at 31 g/ha [17]: 90%; pest or weed control at 125 g/ha [17]: 90%; pest or weed control at 31 g/ha [18]: 0%; pest or weed control at 125 g/ha [18]: 0%
